The values that follow come from patent US10421774B2 (priority 2016, dated 2019).

Assay [1] deals with T332S/V362I/Pr R41G virus. Description: microbe, parasite or virus in culture. It counts as cell-based, HIV-1. The note with it: for Fold wt: genotype T332S/V362I/Pr41G, sensitivity relative to wt virus; for EC50: Human immunodeficiency virus 1, MT2, read-out: T332S/V362I/pr41G EC50. The gist of the method: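 Multiple-cycle susceptibility: MT-2 cells, 10,000 per well, exposed to 3-fold compound dilutions at 1% DMSO after infection with luciferase-normalized inoculum. Virus: NL4-3-derived Renilla reporter (Gag P373S) with Gag T332S/V362I and protease R41G. Readout Renilla luciferase after 4–5 days, 37 °C.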

The subject of assay [2] is V362I site directed mutant virus. The assay is described as follows: Anti-viral sensitivity of site directed mutants, V362I. It counts as cell-based, HIV-1. The note with it: genotype V362I, sensitivity relative to wt virus. From the text: (§1) Viruses. NLRepRluc virus contains the Renilla luciferase marker in place of the viral nef gene. The proviral plasmid pNLRepRluc was constructed at Bristol-Myers Squibb, starting from a proviral NL4-3 clone (B subtype) that was obtained from the NIH AIDS Research and Reference Reagent Program. The parental recombinant wild type (WT) virus (NLRepRlucP373S) was derived from NLRepRluc and contains the additional substitution of P373 for serine in Gag (within the SP1 spacer), the most common 373 variation in subtype B. Other recombinant viruses (A364V, V370A/ΔT371 and the “T3325 triple” (T332S/V362I+HIV-1 protease R41G)) were generated by site-directed mutagenesis of plasmid pNLRepRlucP373S to introduce those amino acid substitutions in Gag and protease. […] Titers of virus stocks were determined using a luciferase assay (Dual-Luciferase® Reporter Assay System, Promega, Milwaukee, Wis., USA) endpoint.
(§2) Multiple cycle drug susceptibility assay. […] After 4-5 day incubation at 37° C./CO2, virus yields were determined by Renilla luciferase activity (Dual-Luciferase® Reporter Assay System, Promega). The endpoint luminescence was detected on a Wallac Trilux (PerkinElmer).
(§3) Starting from wt virus, the HIV protease R41G substitution was detected in one of three in vitro selections for resistance to the MI compound above along with Gag V362I and Gag T332S. […]

Assay [3] relates to T332S site directed mutant virus. The assay is described as follows: Anti-viral sensitivity of site directed mutants, T332S. As to conditions: genotype T332S, sensitivity relative to wt virus. In kind it is cell-based, HIV-1.
From the text: as §1, §2, §3

For assay [4], the system named is HIV protease R41G site directed mutant virus. Description: Anti-viral sensitivity of site directed mutants, HIV protease R41G. It counts as cell-based, HIV-1. The note with it: genotype HIV protease R41G, sensitivity relative to wt virus.
From the text: as §1, §2, §3

In assay [5] the test system is T332S/V362I site directed mutant virus. Description: Anti-viral sensitivity of site directed mutants, T332S/V362I. The note with it: genotype T332S/V362I, sensitivity relative to wt virus. It counts as cell-based, HIV-1.
From the text: as §1, §2, §3

Assay [6] relates to T332S/prR41G site directed mutant virus. Description: Anti-viral sensitivity of site directed mutants, T332S/prR41G. In kind it is cell-based, HIV-1. The note with it: genotype T332S/prR41G, sensitivity relative to wt virus.
From the text: as §1, §2, §3

For assay [7], the system named is V362I/prR41G site directed mutant virus. Description: Anti-viral sensitivity of site directed mutants, V362I/prR41G. As to conditions: genotype V362I/prR41G, sensitivity relative to wt virus. In kind it is cell-based, HIV-1.
From the text: as §1, §2, §3

In assay [8] the test system is HIV-1 strain NL4-4 virus. The assay is described as follows: Selection for resistance to the MI compound, EC50 for the starting virus. It counts as cell-based. The note with it: Human immunodeficiency virus 1, read-out: EC50 for this virus. From the text:
T332sN362I/Pr R41G (N14.3, B Clade) virus′ was obtained as follows: Selection for resistance of HIV-1 strain […] virus with the HIV maturation inhibitor (MI) compound
At passage 8 virus was harvested and sequenced.

In assay [9] the test system is viruses that contain T332S and HIV protease R41G combinations, with and without V362I. The assay is described as follows: Anti-viral sensitivity of site directed mutants, single and double combinations summarised in text. It counts as cell-based, HIV-1. As to conditions: viruses with only a single change. From the text:
Starting from wt virus, the HIV protease R41G substitution was detected in one of three in vitro selections for resistance to the MI compound above along with Gag V362I and Gag T332S. R41G is not a primary PI resistance substitution^i and is not present in the LANL database (2010). There is a single report of R41G associated with in vitro selection for resistance to an investigational PI^ii. […] A related change, R41K, is a common subtype B polymorph (27% of LANL database), and R41K may be involved in the emergence of protease resistance to an investigational protease inhibitor.^iii R41 is located in a loop proximal to the HIV-1 protease substrate binding site, and this change might act allosterically to facilitate closing the protease active site pocket over the substrate, thereby allowing catalysis. It might be that R41G alters the dynamics of the loop motion and the final positioning of the loop, which could cause the active site to better recognize the primary MI compound (above)-selected changes (V362I/T332S). An analysis of the V362I/T332S/Pr R41G substitutions, and their effects on MI compound susceptibility and viral growth, are described in the Table 1 below:
Viruses were constructed that contain T332S and HIV protease R41G combinations, with and without V362I.). […]

Assay [10] deals with NLRepRlucP373S recombinant wild type (WT) virus. Description: microbe, parasite or virus in culture. In kind it is cell-based, HIV-1. The gist of the method:
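Multiple-cycle assay: luciferase-normalized NL4-3-derived NLRepRlucP373S (Renilla luciferase in place of nef) infects MT-2 cells, 10,000 cells/well, with 3-fold compound dilutions at 1% DMSO, 4-5 days, 37 °C. EC50 and EC90 fitted by median effect equation against Renilla luminescence, with residual signal under 3 μM NFV as background.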

The test system of assay [11] is A364V site directed mutant virus. Description: microbe, parasite or virus in culture. In kind it is cell-based, HIV-1. As to conditions: for EC50: Human immunodeficiency virus 1, MT2, read-out: A364V EC50. In short, it runs like this: (§4)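 Virus yield quantified by Renilla luciferase after 4–5 day culture at 37°C of MT-2 cells (10,000/well) with 3-fold serially diluted compound at 1% final DMSO. Reporter viruses were NL4-3 P373S derivatives bearing Gag A364V or V370A/ΔT371, inputs matched on luciferase endpoint.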

Assay [12] relates to gag V370A/ΔT371 virus. Description: microbe, parasite or virus in culture. It counts as cell-based, HIV-1. As to conditions: for EC50: Human immunodeficiency virus 1, MT2, read-out: V370A/ΔT371 EC50. The gist of the method: as §4
Where [13] appears, read: Human immunodeficiency virus 1, MT2, read-out: WT EC50.

SMILES strings stand for the structures. Where two headings read alike, the source gives them in different places.

As for `C=C(C)[C@@H]1CC[C@]2(C(=O)O)CC[C@]3(C)[C@H](CC[C@@H]4[C@@]5(C)CC[C@H](OC(=O)CC(C)(C)C(=O)O)C(C)(C)[C@@H]5CC[C@]43C)[C@@H]12` [BVM, 3β-(3-carboxy-3-methyl-butanoyloxy) lup-20(29)-en-28-oic acid], the Fold wt in assay [1] amounted to 10; in [2], 0.6; in assay [3], 23; in assay [4], 1.9; in assay [5], 3.1; in assay [6], 4.2. The Fold wt in [7] was found to be 3.9.

On to `C=C(C)[C@@H]1CC[C@]2(NCCN3CCS(=O)(=O)CC3)CC[C@]3(C)[C@H](CC[C@@H]4[C@@]5(C)CC=C(c6ccc(C(=O)O)cc6)C(C)(C)[C@@H]5CC[C@]43C)[C@@H]12` [MI compound], for which the Fold wt in assay [1] is given as 217; in assay [2], 2.2; in assay [3], 1.9; in assay [4], 1.5; in assay [5], 5.7; in [6] it was 6.1. The Fold wt in assay [7] is 9.3. Further, in assay [8], the EC50 turned out to be 2 nM. In addition, in assay [9], the fold less sensitive is given as 2 fold.

Consider `C=C(C)[C@@H]1CC[C@]2(NCCN3CCS(=O)(=O)CC3)CC[C@]3(C)[C@H](CC[C@@H]4[C@@]5(C)CC=C(C6=CCC(COCc7ncccc7C#N)(C(=O)O)CC6)C(C)(C)[C@@H]5CC[C@]43C)[C@@H]12` (some centres unmarked) [reference compound], for which the EC50 in [10] (Human immunodeficiency virus 1, read-out: WT EC50) amounted to 2 nM. For the same compound, the EC90 in assay [11] (Human immunodeficiency virus 1, read-out: A364V EC90) worked out at 340 nM; in assay [12] (Human immunodeficiency virus 1, read-out: V370A/ΔT371 EC90), 1460 nM; in assay [1] (Human immunodeficiency virus 1, read-out: T332S/V362I/prR41G EC90), 1460 nM.

In the case of `C=C(C)[C@@H]1CC[C@]2(NCCN3CCS(=O)(=O)CC3)CC[C@]3(C)[C@H](CC[C@@H]4[C@@]5(C)CC=C(C6=CCC(CCOc7nccc(OC)n7)(C(=O)O)CC6)C(C)(C)[C@@H]5CC[C@]43C)[C@@H]12` (stereo partly drawn) [Example A27, 4-((1R,3aS,5aR,5bR,7aR,11aS,11bR,13aR,13bR)-3a-((2-(1,1-dioxidothiomorpholino)ethyl)amino)-5a,5b,8,8,11a-pentamethyl-1-(prop-1-en-2-yl)-2,3,3a,4,5,5a,5b,6,7,7a,8,11,11a,11b,12,13,13a,13b-octadecahydro-1H-cyclopenta[a]chrysen-9-yl)-1-(2-((4-methoxypyrimidin-2-yl)oxy)ethyl)cyclohex-3-ene-1-carboxylic acid], the EC50 in [10] (setting [13]) was 22 nM; in assay [11], more than 50 nM; in [12] it was more than 50 nM; in [1], 3000 nM.

For the compound `C=C(C)[C@@H]1CC[C@]2(NCCN3CCS(=O)(=O)CC3)CC[C@]3(C)[C@H](CC[C@@H]4[C@@]5(C)CC=C(C6=CCC(CCOc7ncccn7)(C(=O)O)CC6)C(C)(C)[C@@H]5CC[C@]43C)[C@@H]12` (stereo partly drawn) [Example A25, 4-((1R,3aS,5aR,5bR,7aR,11aS,11bR,13aR,13bR)-3a-((2-(1,1-dioxidothiomorpholino)ethyl)amino)-5a,5b,8,8,11a-pentamethyl-1-(prop-1-en-2-yl)-2,3,3a,4,5,5a,5b,6,7,7a,8,11,11a,11b,12,13,13a,13b-octadecahydro-1H-cyclopenta[a]chrysen-9-yl)-1-(2-(pyrimidin-2-yloxy)ethyl)cyclohex-3-ene-1-carboxylic acid], the EC50 in assay [10] (setting [13]), in assay [11], in [12] and in [1] was less than 50 nM throughout.

For the compound `C=C(C)[C@@H]1CC[C@]2(NCCN3CCS(=O)(=O)CC3)CC[C@]3(C)[C@H](CC[C@@H]4[C@@]5(C)CC=C(C6=CCC(COc7nc(C(=O)O)cs7)(C(=O)O)CC6)C(C)(C)[C@@H]5CC[C@]43C)[C@@H]12` (stereo partly drawn) [Example 4, 2-((1-carboxy-4-((1R,3aS,5aR,5bR,7aR,11aS,11bR,13aR,13bR)-3a-((2-(1,1-dioxidothiomorpholino)ethyl)amino)-5a,5b,8,8,11a-pentamethyl-1-(prop-1-en-2-yl)-2,3,3a,4,5,5a,5b,6,7,7a,8,11,11a,11b,12,13,13a,13b-octadecahydro-1H-cyclopentatalchrysen-9-yl)cyclohex-3-en-1-yl)methoxy)thiazole-4-carboxylic acid], the EC50 in assay [10] (setting [13]), in assay [11], in assay [12] and in assay [1] was more than 50 nM in each case.
